For 26 molecules, AC50 results are on record in patent publication US20250262201A1, “COMPOUNDS AND METHODS USEFUL FOR STABILIZING PHENYLALANINE HYDROXYLASE MUTATIONS” (Agios Pharmaceuticals, Inc., priority 2022, published 2025).

For this assay, the target named is T1, human PAH with the R408W mutation (Homo sapiens, UniProt P00439, R408W).
T1 construct: expressed in transfected cells
T1 sequence (P00439 1-452 R408W): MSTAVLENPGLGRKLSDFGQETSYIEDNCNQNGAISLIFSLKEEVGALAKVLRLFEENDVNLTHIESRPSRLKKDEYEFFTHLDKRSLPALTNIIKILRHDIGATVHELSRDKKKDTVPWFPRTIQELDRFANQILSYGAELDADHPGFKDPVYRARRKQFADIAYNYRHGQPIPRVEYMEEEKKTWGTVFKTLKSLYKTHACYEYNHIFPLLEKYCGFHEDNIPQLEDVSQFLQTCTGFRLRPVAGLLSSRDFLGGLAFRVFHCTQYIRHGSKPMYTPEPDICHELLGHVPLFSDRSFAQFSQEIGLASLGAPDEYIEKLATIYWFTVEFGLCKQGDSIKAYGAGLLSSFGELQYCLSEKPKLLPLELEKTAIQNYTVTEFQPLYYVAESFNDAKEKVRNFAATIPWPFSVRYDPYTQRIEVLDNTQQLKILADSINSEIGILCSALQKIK
The assay is described as follows: Cell Based Phenylalanine Flux Assay. Particulars: A375 cells expressing human R408W PAH; 24 hrs compound incubation; 13C-Tyrosine by LC-MS; average where tested multiple times; read-out: AC50.
In the case of `O=C(c1nnc(-c2cnn(C(F)F)c2)o1)N1CCc2[nH]cnc2C1c1ccc2ccccc2n1` (stereo in doubt) [Example 64, (S)-(5-(1-(difluoromethyl)-1H-pyrazol-4-yl)-1,3,4-oxadiazol-2-yl)(4-(quinolin-2-yl)-6,7-dihydro-1H-imidazo[4,5-c]pyridin-5(4H)-yl)methanone], the half-maximal activity concentration (AC50) was greater than 5000 nM.
In the case of `O=C(c1oc(-c2ccccn2)nc1C(F)F)N1CCc2[nH]cnc2C1c1ccc2ccccc2n1` (stereo in doubt) [Example 65, (R)-(4-(difluoromethyl)-2-(pyridin-2-yl)oxazol-5-yl)(4-(quinolin-2-yl)-6,7-dihydro-1H-imidazo[4,5-c]pyridin-5(4H)-yl)methanone] it was less than 500 nM; in that of `O=C(c1nnc(-c2ccc(F)c(F)c2)o1)N1CCc2[nH]cnc2C1c1ccc2ccccc2n1` (stereo in doubt) [Example 69, (R)-(5-(3,4-difluorophenyl)-1,3,4-oxadiazol-2-yl)(4-(quinolin-2-yl)-6,7-dihydro-1H-imidazo[4,5-c]pyridin-5(4H)-yl)methanone], 500 to 1000 nM; in that of `O=C(c1nnc(-c2ccc(F)c(F)c2)o1)N1CCc2[nH]cnc2C1c1ccc2ccccc2n1` (stereo in doubt) [Example 70, (S)-(5-(3,4-difluorophenyl)-1,3,4-oxadiazol-2-yl)(4-(quinolin-2-yl)-6,7-dihydro-1H-imidazo[4,5-c]pyridin-5(4H)-yl)methanone], greater than 5000 nM.
In the case of `O=C(c1oc(C2CC(F)(F)C2)nc1C(F)F)N1CCc2[nH]cnc2C1c1ccc2ccccc2n1` (stereo in doubt) [Example 71, (R)-(2-(3,3-difluorocyclobutyl)-4-(difluoromethyl)oxazol-5-yl)(4-(quinolin-2-yl)-6,7-dihydro-1H-imidazo[4,5-c]pyridin-5(4H)-yl)methanone] it was less than 500 nM; in that of `O=C(c1oc(C2CC(F)(F)C2)nc1C(F)F)N1CCc2[nH]cnc2C1c1ccc2ccccc2n1` (stereo in doubt) [Example 72, (S)-(2-(3,3-difluorocyclobutyl)-4-(difluoromethyl)oxazol-5-yl)(4-(quinolin-2-yl)-6,7-dihydro-1H-imidazo[4,5-c]pyridin-5(4H)-yl)methanone], 1000 to 5000 nM.
In the case of `Cn1nc(C(F)F)cc1C(=O)N1CCc2[nH]cnc2C1c1ccc2ccccc2n1` (stereo in doubt) [Example 73, (R)-(3-(difluoromethyl)-1-methyl-1H-pyrazol-5-yl)(4-(quinolin-2-yl)-6,7-dihydro-1H-imidazo[4,5-c]pyridin-5(4H)-yl)methanone] it was 500 to 1000 nM; in that of `Cn1nc(C(F)F)cc1C(=O)N1CCc2[nH]cnc2C1c1ccc2ccccc2n1` (stereo in doubt) [Example 74, (S)-(3-(difluoromethyl)-1-methyl-1H-pyrazol-5-yl)(4-(quinolin-2-yl)-6,7-dihydro-1H-imidazo[4,5-c]pyridin-5(4H)-yl)methanone], 1000 to 5000 nM; in that of `O=C(c1nnc(-c2ccc(F)cc2F)o1)N1CCc2[nH]cnc2C1c1ccc2ccccc2n1` (stereo in doubt) [Example 75, (R)-(5-(2,4-difluorophenyl)-1,3,4-oxadiazol-2-yl)(4-(quinolin-2-yl)-6,7-dihydro-1H-imidazo[4,5-c]pyridin-5(4H)-yl)methanone], 500 to 1000 nM.
Take `O=C(c1nnc(-c2ccc(F)cc2F)o1)N1CCc2[nH]cnc2C1c1ccc2ccccc2n1` (stereo in doubt) [Example 76, (S)-(5-(2,4-difluorophenyl)-1,3,4-oxadiazol-2-yl)(4-(quinolin-2-yl)-6,7-dihydro-1H-imidazo[4,5-c]pyridin-5(4H)-yl)methanone]: the AC50 was greater than 5000 nM.
In the case of `COCc1nc(C(F)F)c(C(=O)N2CCc3[nH]cnc3C2c2ccc3ccccc3n2)o1` (stereo in doubt) [Example 77, (R)-(4-(difluoromethyl)-2-(methoxymethyl)oxazol-5-yl)(4-(quinolin-2-yl)-6,7-dihydro-1H-imidazo[4,5-c]pyridin-5(4H)-yl)methanone] it was less than 500 nM; in that of `COCc1nc(C(F)F)c(C(=O)N2CCc3[nH]cnc3C2c2ccc3ccccc3n2)o1` (stereo in doubt) [Example 78, (S)-(4-(difluoromethyl)-2-(methoxymethyl)oxazol-5-yl)(4-(quinolin-2-yl)-6,7-dihydro-1H-imidazo[4,5-c]pyridin-5(4H)-yl)methanone], less than 500 nM; in that of `Cn1ncnc1C(=O)N1CCc2[nH]cnc2C1c1ccc2ccccc2n1` (stereo in doubt) [Example 80, (2-methyl-1,2,4-triazol-3-yl)-[(4R)-4-(2-quinolyl)-1,4,6,7-tetrahydroimidazo[4,5-c]pyridin-5-yl]methanone], 500 to 1000 nM.
With `O=C(c1ccnn1C(F)F)N1CCc2[nH]cnc2C1c1ccc2ccccc2n1` (stereo in doubt) [Example 81, (R)-(1-(difluoromethyl)-1H-pyrazol-5-yl)(4-(quinolin-2-yl)-6,7-dihydro-1H-imidazo[4,5-c]pyridin-5(4H)-yl)methanone], the AC50 is less than 500 nM.
In the case of `O=C(c1ccnn1C(F)F)N1CCc2[nH]cnc2C1c1ccc2ccccc2n1` (stereo in doubt) [Example 82, (S)-(1-(difluoromethyl)-1H-pyrazol-5-yl)(4-(quinolin-2-yl)-6,7-dihydro-1H-imidazo[4,5-c]pyridin-5(4H)-yl)methanone] it was greater than 5000 nM; in that of `Cn1cc(C(=O)N2CCc3[nH]cnc3C2c2ccc3ccccc3n2)c(C(F)F)n1` (stereo in doubt) [Example 83, (R)-(3-(difluoromethyl)-1-methyl-1H-pyrazol-4-yl)(4-(quinolin-2-yl)-6,7-dihydro-1H-imidazo[4,5-c]pyridin-5(4H)-yl)methanone], less than 500 nM; in that of `Cn1cc(C(=O)N2CCc3[nH]cnc3C2c2ccc3ccccc3n2)c(C(F)F)n1` (stereo in doubt) [Example 84, (S)-(3-(difluoromethyl)-1-methyl-1H-pyrazol-4-yl)(4-(quinolin-2-yl)-6,7-dihydro-1H-imidazo[4,5-c]pyridin-5(4H)-yl)methanone], 1000 to 5000 nM.
In the case of `Cn1ccc(-c2nnc(C(=O)N3CCc4[nH]cnc4C3c3ccc4ccccc4n3)o2)n1` (stereo in doubt) [Example 85, (R)-(5-(1-methyl-1H-pyrazol-3-yl)-1,3,4-oxadiazol-2-yl)(4-(quinolin-2-yl)-6,7-dihydro-1H-imidazo[4,5-c]pyridin-5(4H)-yl)methanone] it was less than 500 nM; in that of `Cn1ccc(-c2nnc(C(=O)N3CCc4[nH]cnc4C3c3ccc4ccccc4n3)o2)n1` (stereo in doubt) [Example 86, (S)-(5-(1-methyl-1H-pyrazol-3-yl)-1,3,4-oxadiazol-2-yl)(4-(quinolin-2-yl)-6,7-dihydro-1H-imidazo[4,5-c]pyridin-5(4H)-yl)methanone], 1000 to 5000 nM; in that of `Cn1cc(C(=O)N2CCc3[nH]cnc3C2c2ccc3ccccc3n2)c(Cl)n1` (stereo in doubt) [Example 88, (R)-(3-chloro-1-methyl-1H-pyrazol-4-yl)(4-(quinolin-2-yl)-6,7-dihydro-1H-imidazo[4,5-c]pyridin-5(4H)-yl)methanone], less than 500 nM.
In the case of `O=C(c1nnc(-c2ncccc2F)o1)N1CCc2[nH]cnc2C1c1ccc2ccccc2n1` (stereo in doubt) [Example 89, (R)-(5-(3-fluoropyridin-2-yl)-1,3,4-oxadiazol-2-yl)(4-(quinolin-2-yl)-6,7-dihydro-1H-imidazo[4,5-c]pyridin-5(4H)-yl)methanone] it was less than 500 nM; in that of `O=C(c1nnc(-c2ncccc2F)o1)N1CCc2[nH]cnc2C1c1ccc2ccccc2n1` (stereo in doubt) [Example 90, (S)-(5-(3-fluoropyridin-2-yl)-1,3,4-oxadiazol-2-yl)(4-(quinolin-2-yl)-6,7-dihydro-1H-imidazo[4,5-c]pyridin-5(4H)-yl)methanone], 1000 to 5000 nM; in that of `CC(C)(O)c1nc(C(F)F)c(C(=O)N2CCc3[nH]cnc3C2c2ccc3ccccc3n2)o1` (stereo in doubt) [Example 91, (R)-(4-(difluoromethyl)-2-(2-hydroxypropan-2-yl)oxazol-5-yl)(4-(quinolin-2-yl)-6,7-dihydro-1H-imidazo[4,5-c]pyridin-5(4H)-yl)methanone], less than 500 nM.
`CC(C)(O)c1nc(C(F)F)c(C(=O)N2CCc3[nH]cnc3C2c2ccc3ccccc3n2)o1` (stereo in doubt) [Example 92, (S)-(4-(difluoromethyl)-2-(2-hydroxypropan-2-yl)oxazol-5-yl)(4-(quinolin-2-yl)-6,7-dihydro-1H-imidazo[4,5-c]pyridin-5(4H)-yl)methanone]: the AC50 was 1000 to 5000 nM.
In the case of `Cn1nccc1C(=O)N1CCc2[nH]cnc2C1c1ccc2ccccc2n1` (stereo in doubt) [Example 93, (R)-(1-methyl-1H-pyrazol-5-yl)(4-(quinolin-2-yl)-6,7-dihydro-1H-imidazo[4,5-c]pyridin-5(4H)-yl)methanone] it was less than 500 nM; in that of `Cn1nccc1C(=O)N1CCc2[nH]cnc2C1c1ccc2ccccc2n1` (stereo in doubt) [Example 94, (S)-(1-methyl-1H-pyrazol-5-yl)(4-(quinolin-2-yl)-6,7-dihydro-1H-imidazo[4,5-c]pyridin-5(4H)-yl)methanone], 1000 to 5000 nM.
